# In patent US20200405697A1, “Antitumor Agent” (Taiho Pharmaceutical Co., Ltd, priority 2017, published 2020):
# System: A549 (Human lung cancer cell line)
# Experiment: Effect of combination of sulfonamide compound and other antitumor agent (CellTiter-Glo, combination index): A549
# [1] = Table 36: Example Compound 1 345 nM + Prexasertib 1.98 nM, molar ratio 1:0.005730
# [2] = Table 36: Example Compound 1 345 nM + SCH900776 910 nM, molar ratio 1:2.639
# [3] = Table 36: Example Compound 1 517 nM + AZD6738 1037 nM, molar ratio 1:2.005
# [4] = Table 36: Example Compound 1 517 nM + Fludarabine nucleoside 5910 nM, molar ratio 1:11.44
# [5] = Table 36: Example Compound 1 517 nM + Prexasertib 2.96 nM, molar ratio 1:0.005730
# [6] = Table 36: Example Compound 1 517 nM + SCH900776 1360 nM, molar ratio 1:2.639
# [7] = Table 36: Example Compound 1 775 nM + AZD6738 1554 nM, molar ratio 1:2.005
# [8] = Table 36: Example Compound 1 775 nM + Decitabine 1340 nM, molar ratio 1:1.733
# [9] = Table 36: Example Compound 1 775 nM + Fludarabine nucleoside 8870 nM, molar ratio 1:11.44
# [10] = Table 36: Example Compound 1 775 nM + Guadecitabine 469 nM, molar ratio 1:0.6048
# [11] = Table 36: Example Compound 1 775 nM + Prexasertib 4.44 nM, molar ratio 1:0.005730
# [12] = Table 36: Example Compound 1 775 nM + SCH900776 2050 nM, molar ratio 1:2.639
# [13] = Table 36: Example Compound 1 1160 nM + AZD6738 2326 nM, molar ratio 1:2.005
# [14] = Table 36: Example Compound 1 1160 nM + Cytarabine 110 nM, molar ratio 1:0.09524
# [15] = Table 36: Example Compound 1 1160 nM + Decitabine 2010 nM, molar ratio 1:1.733
# [16] = Table 36: Example Compound 1 1160 nM + Fludarabine nucleoside 13300 nM, molar ratio 1:11.44
# [17] = Table 36: Example Compound 1 1160 nM + Gemcitabine 5.58 nM, molar ratio 1:0.004813
# [18] = Table 36: Example Compound 1 1160 nM + Guadecitabine 702 nM, molar ratio 1:0.6048
# [19] = Table 36: Example Compound 1 1160 nM + SCH900776 3060 nM, molar ratio 1:2.639
# [20] = Table 36: Example Compound 1 1160 nM + Sunitinib 1870 nM, molar ratio 1:1.608
# [21] = Table 36: Example Compound 1 1160 nM + Trifluridine 430 nM, molar ratio 1:0.3703
# [22] = Table 36: Example Compound 1 1740 nM + 5-Fluorouracil 4300 nM, molar ratio 1:2.469
# [23] = Table 36: Example Compound 1 1740 nM + Azacytidine 4080 nM, molar ratio 1:2.344
# [24] = Table 36: Example Compound 1 1740 nM + Cabozantinib 5990 nM, molar ratio 1:3.443
# [25] = Table 36: Example Compound 1 1740 nM + Cytarabine 166 nM, molar ratio 1:0.09524
# [26] = Table 36: Example Compound 1 1740 nM + Decitabine 3020 nM, molar ratio 1:1.733
# [27] = Table 36: Example Compound 1 1740 nM + Etoposide 3780 nM, molar ratio 1:2.174
# [28] = Table 36: Example Compound 1 1740 nM + Fludarabine nucleoside 19900 nM, molar ratio 1:11.44
# [29] = Table 36: Example Compound 1 1740 nM + Gemcitabine 8.37 nM, molar ratio 1:0.004813
# [30] = Table 36: Example Compound 1 1740 nM + Guadecitabine 1050 nM, molar ratio 1:0.6048
# [31] = Table 36: Example Compound 1 1740 nM + Lapatinib 5990 nM, molar ratio 1:3.443
# [32] = Table 36: Example Compound 1 1740 nM + Luminespib 13.5 nM, molar ratio 1:0.007735
# [33] = Table 36: Example Compound 1 1740 nM + Midostaurin 250 nM, molar ratio 1:0.1438
# [34] = Table 36: Example Compound 1 1740 nM + Olaparib 14800 nM, molar ratio 1:8.494
# [35] = Table 36: Example Compound 1 1740 nM + Oxaliplatin 1060 nM, molar ratio 1:0.6082
# [36] = Table 36: Example Compound 1 1740 nM + SCH900776 4590 nM, molar ratio 1:2.639
# [37] = Table 36: Example Compound 1 1740 nM + Sunitinib 2800 nM, molar ratio 1:1.608
# [38] = Table 36: Example Compound 1 1740 nM + Talazoparib 7980 nM, molar ratio 1:4.587
# [39] = Table 36: Example Compound 1 1740 nM + Trifluridine 644 nM, molar ratio 1:0.3703
# [40] = Table 36: Example Compound 1 2620 nM + Carboplatin 79500 nM, molar ratio 1:30.35
# [41] = Table 36: Example Compound 1 2620 nM + Cisplatin 3610 nM, molar ratio 1:3.669
# [42] = Table 36: Example Compound 1 2620 nM + Trifluridine 970 nM, molar ratio 1:0.3703
# [43] = Table 36: Example Compound 1 3920 nM + Carboplatin 119000 nM, molar ratio 1:30.35
# [44] = Table 36: Example Compound 1 3920 nM + Cisplatin 14400 nM, molar ratio 1:3.669
# [45] = Table 36: Example Compound 1 5890 nM + Carboplatin 179000 nM, molar ratio 1:30.35
# [46] = Table 36: Example Compound 1 8830 nM + Carboplatin 268000 nM, molar ratio 1:30.35
# Protocol: Each cell line was seeded at 90 L/well to a 96-well culture plate (Thermo Fisher Scientific, Inc.) according to the above tables. The cell-seeded plate was cultured in an incubator set to 37° C. and 500 CO2. On the day following seeding, varying concentrations of the sulfonamide compound and the other antitumor agent were added in combination to the cells. […] The serial dilutions of each compound, or DW was added at 5μL/well to the plate such that each compound and DW, or the sulfonamide compound and the other antitumor agent were combined. […] The plate after the addition was cultured at 37° C. for 3 days under 5% CO2 conditions.
# Three days later, CellTiter-Glo(R) 2.0 Reagent (Promega Corporation) was added at 100 μL/well, and the amount of luminescence was measured using a plate reader EnSpire(R) Multimode Plate Reader (PerkinElmer Co., Ltd.).
# An average value from 3 wells was calculated as to each drug condition from the obtained data, and cell survival rate normalized against control wells supplemented with the vehicle (DW) was calculated. A Fa (fractional inhibition) value was calculated by subtracting the cell survival rate from 1.
smiles,measurement,setting,value
"Cc1ccc(F)c([C@@H](C)[C@H](NS(=O)(=O)c2ccc(Br)cc2C(N)=O)c2n[nH]c(=O)o2)c1C [Example 1, 5-bromo-2-(N-((1 S,2R)-2-(6-fluoro-2,3-dimethylphenyl)-1-(5-oxo-4,5-dihydro-1,3,4-oxadiazol-2-yl)propyl)sulfamoyl)benzamide]",CI value,[1],0.363
same,Fa value,[1],0.4283
same,CI value,[2],0.287
same,Fa value,[2],0.5875
same,CI value,[3],0.486
same,Fa value,[3],0.5213
same,CI value,[4],0.818
same,Fa value,[4],0.1823
same,CI value,[5],0.207
same,Fa value,[5],0.7673
same,CI value,[6],0.250
same,Fa value,[6],0.7191
same,CI value,[7],0.318
same,Fa value,[7],0.7989
same,CI value,[8],0.528
same,Fa value,[8],0.3618
same,CI value,[9],0.559
same,Fa value,[9],0.5070
same,CI value,[10],0.558
same,Fa value,[10],0.3478
same,CI value,[11],0.174
same,Fa value,[11],0.8934
same,CI value,[12],0.210
same,Fa value,[12],0.8457
same,CI value,[13],0.309
same,Fa value,[13],0.8880
same,CI value,[14],0.842
same,Fa value,[14],0.4712
same,CI value,[15],0.573
same,Fa value,[15],0.4748
same,CI value,[16],0.405
same,Fa value,[16],0.8089
same,CI value,[17],0.865
same,Fa value,[17],0.6357
same,CI value,[18],0.627
same,Fa value,[18],0.4476
same,CI value,[19],0.255
same,Fa value,[19],0.8825
same,CI value,[20],0.740
same,Fa value,[20],0.7514
same,CI value,[21],0.842
same,Fa value,[21],0.6401
same,CI value,[22],0.835
same,Fa value,[22],0.7276
same,CI value,[23],0.820
same,Fa value,[23],0.6539
same,CI value,[24],0.688
same,Fa value,[24],0.8307
same,CI value,[25],0.619
same,Fa value,[25],0.7121
same,CI value,[26],0.627
same,Fa value,[26],0.5994
same,CI value,[27],0.631
same,Fa value,[27],0.7574
same,CI value,[28],0.537
same,Fa value,[28],0.8431
same,CI value,[29],0.757
same,Fa value,[29],0.8623
same,CI value,[30],0.640
same,Fa value,[30],0.5997
same,CI value,[31],0.400
same,Fa value,[31],0.8672
same,CI value,[32],0.828
same,Fa value,[32],0.8341
same,CI value,[33],0.624
same,Fa value,[33],0.8366
same,CI value,[34],0.575
same,Fa value,[34],0.7460
same,CI value,[35],0.787
same,Fa value,[35],0.7638
same,CI value,[36],0.411
same,Fa value,[36],0.8708
same,CI value,[37],0.811
same,Fa value,[37],0.8380
same,CI value,[38],0.508
same,Fa value,[38],0.7568
same,CI value,[39],0.696
same,Fa value,[39],0.8343
same,CI value,[40],0.519
same,Fa value,[40],0.8844
same,CI value,[41],0.701
same,Fa value,[41],0.9341
same,CI value,[42],0.744
same,Fa value,[42],0.9017
same,CI value,[43],0.474
same,Fa value,[43],0.9458
same,CI value,[44],0.608
same,Fa value,[44],0.9720
same,CI value,[45],0.627
same,Fa value,[45],0.9560
same,CI value,[46],0.635
same,Fa value,[46],0.9773
